US20030166656A1, “Therapeutic or preventive medicines for mood disorders or anxiety disorders” (priority 2003, published 2003)

Tests used:
male SD rats = assay: Elevated plus-maze test in rats (antianxiety effect); format: in vivo, rat; conditions: for antianxiety effect: overall conclusion in words, elevated plus-maze test
Text: (§1) The isoquinoline derivative rep-resented by formula (I) has a marked effect in the forced swim test, which is the animal model for mood disorder, and in the elevated plus-maze test, which is the animal model for anxiety disorder. Thus, the isoquinoline derivative can be used as a drug for curing or preventing mood disorder or anxiety disorder of mammal and, in particular, human beings. It may also be used in manufacturing of a medicament for curing or preventing mood disorder or anxiety disorder. The evaluation using the above-described animal models can be conducted by a method described in published references [Nature vol. 266, 730 (1977) or Jpn. J. Psychopharmacol vol. 15, 125 (1995)], but the method is not limited to this.
Assessment of Antianxiety Effect by the Elevated Plus-Maze Test in Rats
The experiment was conducted on male SD rats. In the elevated plus-maze test, the elevated plus-maze (manufactured by NeuroScience, Inc.) consisting of closed arms and open arms was used. In the experiment, a rat was placed on an open arm 30 minutes after the drug administration (subcutaneous administration), and the number of entries to the open and closed arms and the time spent in the open arms were measured. The test was conducted for 3 minutes. The rat was assumed to have made entries when all four legs have entered the arm. The ratio of the time spent in the open arms and the ratio of the entries to the open arms were calculated according to the following equations:
Ratio of the time spent in the open arms (%)={(time spent in the open arms)/(total time)}×100
Ratio of the entries to the open arms (%)={(number of entries to the open arms)/(total number of entries)}×100
The vertical axis on the left indicates the ratio of the time spent in the open arms (%) and the ratio of the entries to the open arms (%). The vertical axis on the right indicates the total number of entries. The horizontal axis indicates a control group and treatment groups. Open columns indicate the ratio of the time spent in the open arms (%) and hatched columns indicate the ratio of the entries to the open arms (%). Closed circles indicate the total number of entries. All data are indicated by average ±standard error. In a significance test, the difference was assumed to be significant at a significance level of 5% or less by Dunnett's multiple comparison. In the test, the drug is assumed to have an antianxiety effect when there are an increase in time spent on open arms and an increase in ratio of entries to open arms under administration.

male ICR mice = assay: Forced swim test in mice (antidepressant effect); format: in vivo, mouse; conditions: for antidepressant effect: overall conclusion in words, forced swim test
Text: as §1
Assessment of antidepressant effect by the forced swim test in mice
In the experiment, male ICR mice were used. In the forced swim test, the tank for forced swim used was a transparent cylindrical tank made of plastic (inner diameter: 10 cm, height: 30 cm), and water at 25° C. was contained up to 14 cm in height. A mouse was placed in water, and its swimming time during 2 to 6 minutes after placement was measured. The drug was subcutaneously administered 30 minutes before testing. The vertical axis indicates the swimming time (sec) during the measurement time (4 min). The open column indicates a saline-treated group and the hatched columns indicate Compound 1 treatment groups. All data are indicated by average ±standard error. In a significance test, the difference was assumed to be significant at a significance level of 5% or less by Dunnett's multiple comparison. In the test, the drug is assumed to have an antidepressant effect when there is an increase in swimming time under administration.

[1] = FIG. 1, treatment groups vs saline-treated control, s.c., Dunnett's multiple comparison, 5% level

Row | SMILES | antianxiety effect (male SD rats) | antidepressant effect (male ICR mice) | ratio of the entries to open arms (male SD rats; [1]) | time spent in open arms (male SD rats; [1]) | swimming time (male ICR mice; FIG. 2, treatment groups vs saline-treated control, s.c., Dunnett's multiple comparison, 5% level)
1 | Cc1c2c(nc3ccccc13)C[C@@]1(c3cccc(O)c3)CCN(C)C[C@@H]1C2 (relative stereo) [Compound 3, 2-methyl-4aα-(3-hydroxyphenyl)-11-methyl-1,2,3,4,4a,5,12,12aβ-octahydro-quinolino [2,3-g]isoquinoline] | significant antianxiety effects | significant antidepressant effect | – | – | –
2 | CN1CC[C@]2(c3cccc(O)c3)Cc3nc4ccccc4c(N)c3C[C@H]2C1 (relative stereo) [Compound 5, 2-methyl-4aα-(3-hydroxyphenyl)-11-amino-1,2,3,4,4a,5,12,12aβ-octahydro-quinolino,[2,3-g]isoquinoline] | significant antianxiety effects | significant antidepressant effect | – | – | –
3 | Oc1cccc([C@]23CCN(CCc4ccccc4)C[C@@H]2Cc2cc4ccccc4nc2C3)c1 (relative stereo) [Compound 6, 2-phenethyl-4aα-(3-hydroxyphenyl)-1,2,3,4,4a,5,12,12aβ-octahydro-quinolino [2,3-g]isoquinoline] | significant antianxiety effects | significant antidepressant effect | – | – | –
4 | CN1CC[C@]2(c3cccc(O)c3)Cc3nc4ccccc4cc3C[C@@H]2C1 [Compound 1, (4aS,12aS)-2-methyl-4a-(3-hydroxyphenyl)-1,2,3,4,4a,5,12,12a-octahydroquinolino [2,3-g]isoquinoline] | confirmed to have an antianxiety effect | confirmed to have an antidepressant effect | dose-dependent significant increase | dose-dependent significant increase | dose-dependent significant increase
